Experimental data as given in the NIST ThermoML archive (doi:10.1016/j.fluid.2018.11.010).

Assay: wn = mass fraction of the nth substance listed
Conditions: 298.15 K, Wilhelmy plate method

CC(=O)[O-].CCCCCCn1cc[n+](C)c1 [3-hexyl-1-methylimidazolium acetate] + O
surface tension liquid-gas (w1 = 7e-05): 66.55 mN/m
surface tension liquid-gas (w1 = 0.00069): 60.77 mN/m
surface tension liquid-gas (w1 = 0.01013): 51.97 mN/m
surface tension liquid-gas (w1 = 0.3005): 41 mN/m
surface tension liquid-gas (w1 = 1): 36 mN/m
